# Tested on: MT-MMP
# Test: Thiopeptolide assay of cell-associated gelatinase activity ascribed to MT-MMP in TM cells
# Format: cell-based, Rhesus monkey
# Conditions: benzathine (as diacetate salt) combined with an equal weight of test compound in the incubation medium
# Protocol: Unless specifically noted, all molecules tested were prepared as stock solutions in dimethyl sulfoxide (DMSO) with a final concentration of 10 mg/ml. The stocks were stored in a dessicator at −20 degrees Celsius. In testing the molecules, the molecules were diluted to final concentrations of 0.3 ug/ml and 15 ug/ml in a simplified culture medium based on Ames' medium, called Concanavalin A (Con A) conditioning medium (CACM). The monkey TM cells were incubated with the test molecules for 48 hours.
# Control medium of CACM plus DMSO and a positive control with 5 ug/ml Con A plus DMSO were run in parallel. […]
# At the end of the incubation period, by means of a spectrophoto-metric plate reader, the optical density (OD) at 410 nm was determined for each well after automatic subtraction of a blank value for a well containing reaction mixture but without cells. The average OD at the two-hour end point for each test molecule at all concentrations in triplicate was calculated. […] As an alternate to the end point OD reading, one may use the mean rate of appearance of the reaction product (mean V), calculated from the best linear fit of the data to absorbance vs. time. […]
structure (smiles),measurement,value
"O=C(O)c1cc(O)c2ccccc2n1 [Kynurenic Acid, kynurenic acid]",MT-MMP activity in combination with benzathine,evince MT-MMP activity

# Source: patent US20070049559A1, “Preparations comprising arylazine substituted with a carbonylic moiety to increase the activity of Gelatinase A in ocular cells” (priority 2005, published 2007)
